Structures are written as SMILES. Where two headings read alike, the source gives them in different places.

Results on three compounds are retold here after patent US6262064A, “Octahydrobenzo[f]quinoline-based receptor agonists and antagonists” (priority 1999, dated 2001).

In one test the target is T1, 5HT1A serotonin receptor (Bos taurus, UniProt F6Q2H9).
T1 construct: bovine hippocampus; from tissue; host or cells: bovine hippocampus
T1 sequence (F6Q2H9 1-422): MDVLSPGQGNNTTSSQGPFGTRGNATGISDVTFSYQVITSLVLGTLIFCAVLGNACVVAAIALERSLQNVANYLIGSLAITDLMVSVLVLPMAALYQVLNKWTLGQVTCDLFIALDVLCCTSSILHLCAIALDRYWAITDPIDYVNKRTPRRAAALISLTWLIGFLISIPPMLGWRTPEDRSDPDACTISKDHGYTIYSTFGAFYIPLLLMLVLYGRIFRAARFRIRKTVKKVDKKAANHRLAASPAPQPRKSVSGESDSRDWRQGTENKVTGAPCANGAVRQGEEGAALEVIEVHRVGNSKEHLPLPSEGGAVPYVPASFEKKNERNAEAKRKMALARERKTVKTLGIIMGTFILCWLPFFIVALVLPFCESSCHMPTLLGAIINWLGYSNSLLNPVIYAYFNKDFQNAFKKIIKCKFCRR
The experiment in a line: Serotonin (5HT1A) binding assay ([3H]-8-OH-DPAT). Also noted: species or system bovine. Particulars: for Ki: 5-HT1A receptor binding affinity Ki, Table III, bovine hippocampus; for 5HT1A serotonin receptor binding affinity: in words.

In another test the target is T2, D1 dopamine receptor (Rattus norvegicus, UniProt P18901).
T2 construct: rat striatal membranes; from tissue; host or cells: rat striatum membranes
T2 sequence (P18901 whole entry): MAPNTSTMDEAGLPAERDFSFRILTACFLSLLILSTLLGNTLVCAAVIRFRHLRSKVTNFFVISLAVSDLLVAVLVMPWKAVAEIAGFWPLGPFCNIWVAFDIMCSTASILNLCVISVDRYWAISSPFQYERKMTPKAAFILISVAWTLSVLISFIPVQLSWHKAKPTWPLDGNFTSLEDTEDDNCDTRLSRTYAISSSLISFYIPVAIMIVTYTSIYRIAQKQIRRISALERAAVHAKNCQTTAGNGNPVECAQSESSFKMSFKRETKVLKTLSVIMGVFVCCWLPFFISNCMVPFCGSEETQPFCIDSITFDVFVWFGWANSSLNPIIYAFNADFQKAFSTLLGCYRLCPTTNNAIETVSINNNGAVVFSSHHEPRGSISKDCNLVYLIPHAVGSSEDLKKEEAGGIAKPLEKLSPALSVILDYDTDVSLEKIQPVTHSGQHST
The experiment in a line: Dopamine D1 binding assay ([3H]SCH 23390). Particulars: Table III; rat striatal membranes; read-out: D1 receptor binding affinity Ki. As for the experimental part:
The final radioligand concentration was 0.5 nM.

In the next test the target is T3, 5HT2 serotonin receptor (Rattus norvegicus, UniProt P14842).
T3 construct: rat cortical membranes; from tissue; host or cells: rat cortex membranes
T3 sequence (P14842 whole entry): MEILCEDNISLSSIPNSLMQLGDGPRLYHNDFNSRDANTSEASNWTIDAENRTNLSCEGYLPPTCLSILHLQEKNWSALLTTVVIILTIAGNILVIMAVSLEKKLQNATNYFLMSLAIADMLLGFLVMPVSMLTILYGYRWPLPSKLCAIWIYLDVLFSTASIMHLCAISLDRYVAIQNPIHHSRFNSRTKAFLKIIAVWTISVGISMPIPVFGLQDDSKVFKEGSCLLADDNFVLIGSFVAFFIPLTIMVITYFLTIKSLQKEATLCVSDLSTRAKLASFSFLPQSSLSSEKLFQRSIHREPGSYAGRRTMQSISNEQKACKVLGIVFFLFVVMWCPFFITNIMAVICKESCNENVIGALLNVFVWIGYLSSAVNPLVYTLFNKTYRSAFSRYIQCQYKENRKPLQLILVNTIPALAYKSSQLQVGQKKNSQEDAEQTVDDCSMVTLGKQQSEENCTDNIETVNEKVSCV
The experiment in a line: Serotonin (5HT2) binding assay ([3H]Ketanserin). As to the method:
The final ligand concentration was 1.0 nM.

Another test relates to 5HT1 serotonin receptor. The experiment in a line: Serotonin (5HT1) binding assay. Particulars: for Ki: read-out: 5-HT1 receptor binding affinity Ki, Table III, rat cortical membranes.
The target in a further test is T4, D2 dopamine receptor (Rattus norvegicus, UniProt P61169).
T4 construct: rat striatal membranes; from tissue; host or cells: rat striatum membranes
T4 sequence (P61169 whole entry): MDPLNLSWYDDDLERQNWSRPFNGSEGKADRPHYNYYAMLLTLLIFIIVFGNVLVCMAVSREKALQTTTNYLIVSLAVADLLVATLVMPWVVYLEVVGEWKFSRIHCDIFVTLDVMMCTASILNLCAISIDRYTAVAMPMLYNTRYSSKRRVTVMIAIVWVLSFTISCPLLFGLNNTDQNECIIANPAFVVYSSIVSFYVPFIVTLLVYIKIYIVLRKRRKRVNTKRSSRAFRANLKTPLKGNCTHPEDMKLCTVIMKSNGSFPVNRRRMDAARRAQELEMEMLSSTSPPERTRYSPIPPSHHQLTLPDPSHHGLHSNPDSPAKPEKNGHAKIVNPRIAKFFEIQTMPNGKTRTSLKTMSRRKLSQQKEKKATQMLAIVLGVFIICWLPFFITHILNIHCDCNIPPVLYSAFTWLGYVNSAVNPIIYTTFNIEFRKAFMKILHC
The experiment in a line: Dopamine D2 binding assay ([3H]Sulpiride). Particulars: for dopamine receptor binding affinity / selectivity for the D2 over the D1 dopamine receptor: in words. As for the experimental part:
The final ligand concentration was 0.5 nM.

The target of test [1] is alpha2-adrenergic receptor. Briefly: Alpha2-adrenergic (non-selective) binding assay ([3H]RX 781094). Particulars: for Ki: Table III, rat cortical membranes, read-out: α2 receptor binding affinity Ki; for α2 receptor binding affinity: in words. Also noted: species or system rat.
The subject of test [2] is alpha1-adrenergic receptor. Particulars: for α1 receptor binding affinity: in words; for Ki: read-out: α1 receptor binding affinity Ki, Table III, rat forebrain membranes.
A further test deals with T5, D2 receptor (Rattus norvegicus, UniProt P61169).
T5 construct: expressed in transfected cells
T5 sequence (P61169 whole entry): as above
The experiment in a line: D2 receptor agonist evaluation (membrane binding with and without Gpp(NH)p). As to the method: To determine the D2, D3 or D4 receptor selectivity, competition binding assays were performed using membranes from fibroblast cell lines transfected with D2444 (rat), D3 (human) or D4 (rat) receptors. All cell lines were maintained in Dulbecco's modified Eagle's media (DMEM) supplemented with 10 % fetal bovine serum at 37° C. with 5% CO2. Transfected cells were maintained in DMEM containing 300 μg/mL of the antibiotic G418 (Gibco).
To determine whether or not compounds of this invention were D2 receptor agonists, a membrane binding assay, utilizing the D2 cell line described in Example 26, was performed in the presence and absence of the non-hydrolyzable guanine nucleotide (GTP analogue) Gpp(NH)p.

The mark [3] stands for this setting: 5-HT2 receptor binding affinity Ki.

Take `Oc1cccc2c1CC[C@@H]1[C@@H]2CCCN1CCc1ccccc1` (single isomer, unassigned) [trans-(-)-25, trans-(-)-7-hydroxy-4-phenethyl-1,2,3,4a,5,6,10b-octahydrobenzo[f]quinoline]: the Ki on 5HT1A serotonin receptor was determined as 11 nM; on D1 dopamine receptor it was 3600 nM; on 5HT2 serotonin receptor (setting [3]), 410 nM; at 5HT1 serotonin receptor it was 240 nM; on D2 dopamine receptor, 0.9 nM; in test [1], 2.1 nM. In test [2], the Ki stood at 4.8 nM. The “5HT1A serotonin receptor binding affinity” value on 5HT1A serotonin receptor is reported as “high binding affinities for the 5HT1A serotonin receptor”. The “5HT1 serotonin receptor binding affinity” value in the test with 5HT1 serotonin receptor (in words) is “high binding affinity for the 5HT1 serotonin receptor”. The “dopamine receptor binding affinity” value at D2 dopamine receptor is recorded as “good dopamine receptor binding affinities”. Also, the “selectivity for the D2 over the D1 dopamine receptor” value (shortened to “selectivity for the D2”) at D2 dopamine receptor is “highly selective for the D2 dopamine receptor over the D1 dopamine receptor”. Further, the “α2 receptor binding affinity” value in test [1] was “high binding affinities for the α2 receptor”. Moreover, in test [2], the “α1 receptor binding affinity” value is given as “high binding affinities for the α1 receptor”.

As to `Oc1ccc2c(c1O)CC[C@H]1[C@H]2CCCN1CCc1ccccc1` (single isomer, unassigned) [trans-(-)-9, Trans-(-)-7,8-Dihydroxy-4-phenethyl-1,2,3,4,4a,5,6, 10b-octahydrobenzo[f]quinoline], the Ki on 5HT1A serotonin receptor amounted to 67 nM; on D1 dopamine receptor, 3500 nM; at 5HT2 serotonin receptor, 26 nM; at 5HT1 serotonin receptor, 3300 nM; at D2 dopamine receptor it was 0.38 nM; in test [1], 9 nM. In addition, the inhibition constant Ki in test [2] amounted to 130 nM. Further, the “5HT1A serotonin receptor binding affinity” value on 5HT1A serotonin receptor was “high binding affinities for the 5HT1A serotonin receptor”. Moreover, at 5HT2 serotonin receptor (in words), the “5HT2 serotonin receptor binding affinity” value is given as “high binding affinities for the 5HT2 serotonin receptor”. The “dopamine receptor binding affinity” value at D2 dopamine receptor is listed as “good dopamine receptor binding affinities”. Moreover, the “selectivity for the D2” value on D2 dopamine receptor is reported as “highly selective for the D2 dopamine receptor over the D1 dopamine receptor”. Besides, in test [1], the “α2 receptor binding affinity” value is reported as “high binding affinities for the α2 receptor”.

As for `Oc1cccc2c1CC[C@H]1[C@H]2CCCN1CCc1ccccc1` (relative stereo) [trans-25, Trans-7-hydroxy-4-phenethyl-1,2,3,4,4a,5,6,10b-octahydrobenzo[f]quinoline], the Ki at D1 dopamine receptor turned out to be 5100 nM; at 5HT2 serotonin receptor (setting [3]), 27 nM; at 5HT1 serotonin receptor, 470 nM; at D2 receptor, 37 ± 9 nM; on D2 receptor (Table XV, with Gpp(NH)p, read-out: D2 receptor binding Ki with Gpp(NH)p), 1270 ± 1640 nM; at D2 dopamine receptor, 0.87 nM. Also, the Ki was 0.22 nM in test [1] and 4.5 nM in test [2]. Besides, at 5HT2 serotonin receptor, the “5HT2 serotonin receptor binding affinity” value is recorded as “high binding affinities for the 5HT2 serotonin receptor”. In addition, at D2 receptor (Table XV), the “Ratio of +:- Gpp(NH)p” value is on record as 34.7. Moreover, the D2 agonist/antagonist assessment entry at D2 receptor (in words) is “appear to be agonists”. Further, the “effect of GTP on D2 receptor binding” value on D2 receptor (in words) is given as “D2 receptor binding was enhanced by the addition of GTP”. Further, the “dopamine receptor binding affinity” value on D2 dopamine receptor is on record as “good dopamine receptor binding affinities”. Moreover, on D2 dopamine receptor, the “selectivity for the D2” value is given as “highly selective for the D2 dopamine receptor over the D1 dopamine receptor”. The “α2 receptor binding affinity” value in test [1] is listed as “high binding affinities for the α2 receptor”. In test [2], the “α1 receptor binding affinity” value is on record as “high binding affinities for the α1 receptor”.
